Reference: patent publication US9333272B2, “Fibrin binding peptide conjugates for diagnostic and therapeutic applications” (Bracco Imaging SpA, priority 2006, dated 2016)

Assays:
[1] = target: T1, fibrin in tumor, TRAMP prostate tumor (Mus musculus, UniProt E9PV24+Q8K0E8+Q8VCM7); test: In vivo MRI, transgenic adenocarcinoma mouse prostate model (TRAMP), Example 17; conditions: 100 μmol/kg iv; control
T1 construct: from tissue; host or cells: tumor stroma of living mice (BALB-neuT mammary tumor, TRAMP prostate tumor, Neuro-2a neuroblastoma in A/J mice)
T1 sequence (E9PV24 20-557 isoform E9PV24-2 limits assumed): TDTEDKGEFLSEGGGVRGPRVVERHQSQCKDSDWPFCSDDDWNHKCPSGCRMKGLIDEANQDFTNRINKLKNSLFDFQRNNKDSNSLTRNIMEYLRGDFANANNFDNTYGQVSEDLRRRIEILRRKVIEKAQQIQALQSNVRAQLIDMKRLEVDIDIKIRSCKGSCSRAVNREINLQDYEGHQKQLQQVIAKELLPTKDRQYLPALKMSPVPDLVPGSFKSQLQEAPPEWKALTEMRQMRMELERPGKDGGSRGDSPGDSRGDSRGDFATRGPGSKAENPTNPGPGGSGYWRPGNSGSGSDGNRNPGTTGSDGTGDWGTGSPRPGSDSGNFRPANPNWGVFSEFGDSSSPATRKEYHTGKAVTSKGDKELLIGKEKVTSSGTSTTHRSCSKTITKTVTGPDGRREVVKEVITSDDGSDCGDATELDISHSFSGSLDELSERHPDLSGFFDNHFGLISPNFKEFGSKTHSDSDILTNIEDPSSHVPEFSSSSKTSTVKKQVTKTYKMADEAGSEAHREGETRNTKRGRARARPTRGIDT
T1 sequence (Q8K0E8 35-481 limits assumed): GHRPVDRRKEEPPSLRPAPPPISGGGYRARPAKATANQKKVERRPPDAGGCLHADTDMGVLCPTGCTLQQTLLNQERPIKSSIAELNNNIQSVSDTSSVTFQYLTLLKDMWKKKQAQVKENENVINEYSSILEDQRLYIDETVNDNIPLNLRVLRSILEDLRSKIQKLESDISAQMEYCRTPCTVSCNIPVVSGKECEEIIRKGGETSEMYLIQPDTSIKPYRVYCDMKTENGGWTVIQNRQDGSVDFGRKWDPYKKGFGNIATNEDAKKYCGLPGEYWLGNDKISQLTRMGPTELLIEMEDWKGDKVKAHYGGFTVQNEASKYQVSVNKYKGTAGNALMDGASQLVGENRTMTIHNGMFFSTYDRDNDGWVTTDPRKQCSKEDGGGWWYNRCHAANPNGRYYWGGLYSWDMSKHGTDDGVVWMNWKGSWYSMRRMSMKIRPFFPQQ
T1 sequence (Q8VCM7 26-436): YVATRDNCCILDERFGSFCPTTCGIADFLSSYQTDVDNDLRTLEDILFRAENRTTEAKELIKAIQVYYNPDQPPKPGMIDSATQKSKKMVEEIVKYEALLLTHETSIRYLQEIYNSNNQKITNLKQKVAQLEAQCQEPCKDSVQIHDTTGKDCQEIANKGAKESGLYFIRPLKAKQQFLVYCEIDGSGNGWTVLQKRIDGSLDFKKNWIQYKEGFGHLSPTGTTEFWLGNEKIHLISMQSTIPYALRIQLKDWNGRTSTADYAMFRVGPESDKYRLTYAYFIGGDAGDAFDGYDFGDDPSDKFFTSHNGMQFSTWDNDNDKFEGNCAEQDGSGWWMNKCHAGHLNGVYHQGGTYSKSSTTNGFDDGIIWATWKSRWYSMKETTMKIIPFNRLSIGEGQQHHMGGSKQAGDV
Description: This test has been performed in a transgenic adenocarcinoma mouse prostate model (TRAMP) developed by introducing a PB promoter—SV40 T antigen fusion transgene (PB-Tag) into the germ line of C57BL/6 inbred mice.
Two TRAMP mice were treated with ProHance® at 100 μmol/kg iv (control), and the day after with Chelate Complex 2 or with Chelate Complex 5 at 25 μmol/kg iv. T1 weighted SE images were acquired pre- and post-contrast injection and the kinetic of enhancement in the tumor was followed up to 3 h post-test compound administration.

[2] = target: T2, fibrin in tumor, mammary tumor mouse model (BALB-neuT) (Mus musculus, UniProt E9PV24+Q8K0E8+Q8VCM7); test: In vivo MRI, mammary tumor mouse model (BALB-neuT), Example 16; conditions: 100 μmol/kg; reference compound
T2 construct: from tissue; host or cells: tumor stroma of living mice (BALB-neuT mammary tumor, TRAMP prostate tumor, Neuro-2a neuroblastoma in A/J mice)
T2 sequence (E9PV24 20-557 isoform E9PV24-2 limits assumed): T1 sequence (E9PV24 20-557 isoform E9PV24-2 limits assumed)
T2 sequence (Q8K0E8 35-481 limits assumed): T1 sequence (Q8K0E8 35-481 limits assumed)
T2 sequence (Q8VCM7 26-436): T1 sequence (Q8VCM7 26-436)
Description: The test has been performed in a mammary tumor mouse model (BALB-neuT). Mice were treated with Chelate Complex 2 of the invention, 25 μmol/kg, injected iv, and with ProHance® at 100 μmol/kg. Signal enhancement of the tumor was followed up to 3 h after contrast administration.
Successive T1 weighted SE images were acquired pre- and post-injection of the test compounds and some examples are reported in FIGS. 6 and 7. Images are related to successive slices from the same mouse acquired at different time points post contrast. In particular, FIG. 6 includes images post-injection of chelate Complex 2 at 25 μmol/kg (arrows indicate tumor) and FIG. 7 includes analogous images post administration of ProHance®.

CC(O)CN1CCN(CC(=O)[O-])CCN(CC(=O)[O-])CCN(CC(=O)[O-])CC1.[Gd+3] (centres unmarked) [ProHance®]
Tumor signal enhancement (T1 weighted MRI), in words [1]: very weak signal enhancement
Tumor signal enhancement (T1 weighted MRI), in words [2]: signal distribution only on the border and no signal enhancement inside the tumors after 55 min
